According to PMC6100724, “Proteome‐wide analysis of phospho‐regulated PDZ domain interactions” (Molecular Systems Biology, 2018):
Values belong to the sequence of their own block, whether it stands above or below them.

Legend:
Assay in all cases: Phosphomimetic ProP-PD selection with NGS
Scribble PDZ3 = format: binding, human; conditions: bait Scribble PDZ3
Description: (§1) Phage selections were carried out for four rounds following a protocol by Huang and Sidhu (Huang & Sidhu, 2011) with minor modifications. Non‐specific binding phage was removed by pre‐selections against immobilized GST throughout the selection. The selections against the (pre‐)phosphorylated wild‐type library were performed in 50 mM HEPES (pH 7.4) and 150 mM NaCl (HBS) following the same procedure after pre‐phosphorylation of the library.
(§2) • Immobilize proteins (15 μg in 100 μl PBS) in a 96‐well MaxiSorp microtiter plate (NUNC) overnight at 4°C. • Start a 2YT culture of E. coli Omnimax supplemented with 100 μg/ml tetracycline to retain the F pilus epitope. • Block the wells with 200 μl 0.5% BSA in PBS for 2 h at 4°C. • Precipitate naïve phage library (10^11 cfu per selection) or amplified phage pool from the previous round of selection by adding one‐fifth the volume of PEG/NaCl. • Incubate on ice for 10 min, and pellet precipitated phage by centrifugation at 5,300 g for 15 min. Resuspend the phage pellet in 100 μl PBS per selection. • Add 100 μl of phage solution to the GST‐coated pre‐selection wells and incubate for 1 h. • Transfer the phage solution to the immobilized target proteins and allow it to bind for 2 h at 8°C. • Wash the plate four times with 200 μl cold wash buffer (PBS, 0.05% Tween‐20). • Elute bound phage by incubation with 100 μl log phase (0.6–0.8 OD600) E. coli Omnimax for 30 min at 37°C with shaking (200 RPM). • Add 10^12 cfu/ml M13K07 helper phage for hyperinfection of the bacteria and incubate as above for 45 min. • Transfer the bacterial culture to 10 ml 2YT supplemented with 50 μg/ml carbenicillin, 25 μg/ml kanamycin, and 300 μM IPTG and incubate overnight at 37°C while shaking. • Perform phage pool ELISA to monitor the progress of the selection as described previously (Huang & Sidhu, 2011).
(§3) The naïve library and the enriched phage pools of the third day of selection were amplified and barcoded by PCR and analyzed by NGS as described elsewhere (McLaughlin & Sidhu, 2013; Ivarsson et al, 2014). The reads were demultiplexed using the barcode sequences and filtered by discarding sequences with a Phred quality score under 30. Sequences were mapped to the original library using Bowtie (Langmead et al, 2009) with two mismatches between reads and library sequence. Nucleotide mutations leading to amino acid substitutions were subsequently removed. Cutoff values of NGS counts were assigned for each pool. PWMs were generated based on the remaining peptides (aligned on the C‐termini) using WebLogo (Crooks et al, 2004).
(§4) However, there was no significant correlation of the actual read counts (selection “strength”) and the initial representation in the library, reflecting the strong selection during phage display (wt+mimetic: P‐value: 0.49, ρ = −0.08, mimetic only: P‐value: 0.069, ρ = −0.2, wt only: P‐value: 0.12, ρ = 0.17). Consequently, the amount of reads for each binder after phage display is not a function of the amount of input reads in the naïve library and no modeling based on the input library frequencies to score the interactions is necessary. To allow for comparison between replicate selections, we used the fraction of NGS reads within a certain set, instead of the absolute number of NGS reads, as the absolute numbers differ between different NGS batches.

DLG1 PDZ2 = target: T1, DLG1 PDZ2 (Homo sapiens, UniProt Q12959); format: binding; conditions: mean of selections 1-3, bait DLG1 PDZ2
T1 construct: human DLG1 PDZ2 aa 311–407 in a modified pRSET vector 40; made in house; host or cells: E. coli BL21 Gold (DE3)
T1 sequence (Q12959 311-407): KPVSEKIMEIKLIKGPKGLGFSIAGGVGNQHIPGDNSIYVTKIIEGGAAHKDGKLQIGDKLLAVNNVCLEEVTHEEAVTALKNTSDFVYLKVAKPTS
Description: as §1, §2, §3, §4

Scribble PDZ1 = target: T2, Scribble PDZ1 (Homo sapiens, UniProt Q14160); format: binding; conditions: bait Scribble PDZ1; mean of selections 1-3
T2 construct: human Scribble PDZ1 aa 719–829 in; made in house; host or cells: E. coli BL21 Gold (DE3)
T2 sequence (Q14160 719-829): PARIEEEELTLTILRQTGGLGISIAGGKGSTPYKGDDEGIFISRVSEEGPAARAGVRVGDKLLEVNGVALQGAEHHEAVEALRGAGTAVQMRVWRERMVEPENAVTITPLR
Description: as §1, §2, §3, §4

[1] = mean of selections 1-3, wild type peptide
[2] = mean of selections 1-3, phosphomimetic peptide

Sequence: KYVDAETSL
Mean fraction #NGS counts wt peptide / total counts selection (Scribble PDZ3; [1]): 0.0001259

Sequence: ERLEYETTL
Mean fraction #NGS counts wt peptide / total counts selection (Scribble PDZ3; [1]): 0.0004529
Mean fraction #NGS counts wt peptide / total counts selection (Scribble PDZ3; mean over selections 1-3): 0.0004529

Sequence: KEEPFLTWL
Mean fraction #NGS counts mimetic peptide / total count selection (Scribble PDZ3; mean over selections 1-3): 0.001054

Sequence: ISYRREEAI
Mean fraction #NGS counts mimetic peptide / total count selection (Scribble PDZ3; mean over selections 1-3): 0

Sequence: VTSERETNI
Mean fraction #NGS counts wt peptide / total counts selection (Scribble PDZ3; mean over selections 1-3): 0.001424

Sequence: RPLRRESEI
Mean fraction #NGS counts mimetic peptide / total count selection (DLG1 PDZ2): 0
Mean fraction #NGS counts wt peptide / total counts selection (DLG1 PDZ2): 3.748e-5
Mean fraction #NGS counts wt peptide / total counts selection (Scribble PDZ3; mean over selections 1-3): 8.219e-5

Sequence: PLHELETEL
Mean fraction #NGS counts mimetic peptide / total count selection (Scribble PDZ3; [2]): 0.00248

Sequence: ERLEYEETL
Mean fraction #NGS counts mimetic peptide / total count selection (Scribble PDZ3; mean over selections 1-3): 0

Sequence: KKRMVEEPL
Mean fraction #NGS counts mimetic peptide / total count selection (Scribble PDZ3; mean over selections 1-3): 0

Sequence: PEHVLQTQI
Mean fraction #NGS counts mimetic peptide / total count selection (Scribble PDZ1): 0.0001068

Sequence: PIHSLETEL
Mean fraction #NGS counts mimetic peptide / total count selection (Scribble PDZ1): 0.002226
Mean fraction #NGS counts mimetic peptide / total count selection (Scribble PDZ3; mean over selections 1-3): 0.002436

Sequence: DKEEFLTWL
Mean fraction #NGS counts mimetic peptide / total count selection (Scribble PDZ1): 0
Mean fraction #NGS counts mimetic peptide / total count selection (Scribble PDZ3; mean over selections 1-3): 0.0001294

Sequence: HEIKQSTAV
Mean fraction #NGS counts mimetic peptide / total count selection (DLG1 PDZ2; phosphomimetic peptide): 0

Sequence: KLSEIESDV
Mean fraction #NGS counts mimetic peptide / total count selection (DLG1 PDZ2): 0
Mean fraction #NGS counts mimetic peptide / total count selection (Scribble PDZ3; mean over selections 1-3): 6.057e-6

Sequence: SIDLWETAL
Mean fraction #NGS counts wt peptide / total counts selection (Scribble PDZ3; mean over selections 1-3): 0.004105

Sequence: VKRLLESVF
Mean fraction #NGS counts mimetic peptide / total count selection (Scribble PDZ1): 0.005379

Sequence: PIHSLEESL
Mean fraction #NGS counts mimetic peptide / total count selection (Scribble PDZ1): 0
Mean fraction #NGS counts mimetic peptide / total count selection (Scribble PDZ3; mean over selections 1-3): 7.932e-6

Sequence: NSTNMESEL
Mean fraction #NGS counts mimetic peptide / total count selection (Scribble PDZ3; [2]): 0.001938

Sequence: VTEERETNI
Mean fraction #NGS counts mimetic peptide / total count selection (Scribble PDZ3; mean over selections 1-3): 4.038e-6

Sequence: EIDLWETAL
Mean fraction #NGS counts mimetic peptide / total count selection (Scribble PDZ3; mean over selections 1-3): 0.0004512

Sequence: PLHSLETSL
Mean fraction #NGS counts wt peptide / total counts selection (Scribble PDZ1): 0.0001571
Mean fraction #NGS counts wt peptide / total counts selection (Scribble PDZ3; [1]): 0.0002079
Mean fraction #NGS counts wt peptide / total counts selection (Scribble PDZ3; mean over selections 1-3): 0.0002261

Sequence: NSTNMESSL
Mean fraction #NGS counts wt peptide / total counts selection (Scribble PDZ3; [1]): 0

Sequence: PLHELETSL
Mean fraction #NGS counts mimetic peptide / total count selection (Scribble PDZ1): 0
Mean fraction #NGS counts mimetic peptide / total count selection (Scribble PDZ3; mean over selections 1-3): 0

Sequence: VRKLPETTL
Mean fraction #NGS counts mimetic peptide / total count selection (Scribble PDZ3; mean over selections 1-3): 0.002417

Continued, in another order:

Mean fraction #NGS counts mimetic peptide / total count selection (DLG1 PDZ2): 7.62e-5
Sequence: LRLQSETEV

Mean fraction #NGS counts wt peptide / total counts selection (DLG1 PDZ2): 0
Sequence: GLMKRRSSV

Mean fraction #NGS counts wt peptide / total counts selection (DLG1 PDZ2): 5.084e-5
Sequence: HFSSLESEV

Mean fraction #NGS counts mimetic peptide / total count selection (DLG1 PDZ2): 0
Sequence: RATEWYSPY

Mean fraction #NGS counts wt peptide / total counts selection (Scribble PDZ1): 4.38e-5
Sequence: VRSKLPSNL

Mean fraction #NGS counts wt peptide / total counts selection (DLG1 PDZ2): 0.002312
Sequence: RATSWYSPY

Mean fraction #NGS counts mimetic peptide / total count selection (DLG1 PDZ2): 0.001455
Sequence: IEFTQTEQF

Mean fraction #NGS counts wt peptide / total counts selection (Scribble PDZ1): 0.0005328
Sequence: RPHTNETSL
Mean fraction #NGS counts wt peptide / total counts selection (Scribble PDZ3; mean over selections 1-3): 0.0004079

Mean fraction #NGS counts mimetic peptide / total count selection (Scribble PDZ1): 0.008773
Sequence: RPHTNETEL
Mean fraction #NGS counts mimetic peptide / total count selection (Scribble PDZ3; mean over selections 1-3): 0.00587

Mean fraction #NGS counts mimetic peptide / total count selection (DLG1 PDZ2): 0
Sequence: HFESLESEV

Mean fraction #NGS counts wt peptide / total counts selection (Scribble PDZ1): 0
Sequence: QKFRASTAL
Mean fraction #NGS counts wt peptide / total counts selection (Scribble PDZ3; mean over selections 1-3): 4.038e-6

Mean fraction #NGS counts wt peptide / total counts selection (Scribble PDZ1): 0
Sequence: VKRLLSSVF

Mean fraction #NGS counts mimetic peptide / total count selection (Scribble PDZ1): 0.01768
Sequence: MKRLTETRL
Mean fraction #NGS counts mimetic peptide / total count selection (Scribble PDZ3; mean over selections 1-3): 0.001041

Mean fraction #NGS counts mimetic peptide / total count selection (Scribble PDZ1): 0.002401
Sequence: QKFRAETAL
Mean fraction #NGS counts mimetic peptide / total count selection (Scribble PDZ3; mean over selections 1-3): 0.001978

Mean fraction #NGS counts wt peptide / total counts selection (DLG1 PDZ2; wild type peptide): 0.02056
Sequence: RSSMKPGFV

Mean fraction #NGS counts mimetic peptide / total count selection (DLG1 PDZ2; phosphomimetic peptide): 0
Sequence: RSEMKPGFV

Mean fraction #NGS counts wt peptide / total counts selection (DLG1 PDZ2): 6.749e-6
Sequence: ISFTQTSQF

Mean fraction #NGS counts wt peptide / total counts selection (DLG1 PDZ2; wild type peptide): 0.0005933
Sequence: SATSVHTSV
